Experiments:
[1] = target: T1, RIPK2 enzyme (Homo sapiens, UniProt O43353); test: RIPK2 inhibition (ADP-Glo Kinase Assay); format: biochemical; details: RIPK2 5 nM, ATP 150 μM, MBP substrate, read-out: RIPK2 IC50
T1 construct: purchased Carna 09-128
How it was run: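 Human RIPK2 (5 nM) preincubated with compound 30 min at room temperature in 50 mM HEPES pH 7.5, 10 mM MgCl2, 2 mM DTT, 1 mM EGTA, 0.01% Brij-35, 0.05% BSA; native swine MBP as substrate. ADP formed quantified by ADP-Glo luminescence; percent inhibition relative to DMSO and no-enzyme controls.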

[2] = target: T2, RIPK2 and XIAP protein-protein interaction (Homo sapiens, UniProt O43353); test: Inhibition of the interaction of RIPK2 with XIAP (NanoBRET in HEK293T cells); format: cell-based; details: RIPK2 HaloTag / XIAP NanoLuc, read-out: NanoBRET Scaffolding IC50
T2 construct: the N-terminus of full-length RIPK2 was appended with the HaloTag fusion protein; expressed in transfected cells; host or cells: HEK293T
T2 sequence (O43353 whole entry, the tested form may be a part): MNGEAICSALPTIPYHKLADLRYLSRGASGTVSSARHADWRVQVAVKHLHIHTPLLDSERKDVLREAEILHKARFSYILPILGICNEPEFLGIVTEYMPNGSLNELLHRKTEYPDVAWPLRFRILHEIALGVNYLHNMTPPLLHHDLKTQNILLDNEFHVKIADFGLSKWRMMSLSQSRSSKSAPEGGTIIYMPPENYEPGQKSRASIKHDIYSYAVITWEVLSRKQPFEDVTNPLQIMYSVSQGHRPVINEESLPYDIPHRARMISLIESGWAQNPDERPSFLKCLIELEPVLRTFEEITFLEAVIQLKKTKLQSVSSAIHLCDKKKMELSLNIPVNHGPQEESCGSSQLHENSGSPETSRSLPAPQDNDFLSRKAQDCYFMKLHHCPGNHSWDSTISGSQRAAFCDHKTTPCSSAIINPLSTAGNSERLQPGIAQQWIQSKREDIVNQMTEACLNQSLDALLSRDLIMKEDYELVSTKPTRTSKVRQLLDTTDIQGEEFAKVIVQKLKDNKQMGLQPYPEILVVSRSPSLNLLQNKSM
How it was run: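 HEK293T cells transiently co-transfected with HaloTag-RIPK2 (N-terminal) and XIAP-NanoLuc (C-terminal) full-length fusions, grown 24 h at 37° C. in Opti-MEM with 4% FBS. Compounds tested as 10-point 3-fold dilutions; NanoBRET ratio taken as 618 nm acceptor over 460 nm donor emission.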

[3] = system: human NOD2 signaling; test: Inhibition of human NOD2 signaling in HEK-Blue-hNOD2 cells (L18-MDP stimulated, SEAP reporter); format: cell-based; details: Homo sapiens, HEK-Blue hNOD2, HEK-Blue-hNOD2 cells, NOD2 ligand stimulation, SEAP reporter; read-out: hNOD2 IC50
How it was run: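 HEK-Blue-hNOD2 cells (HEK293 with NOD2 and SEAP reporter), 12500/well, treated with 10-point 3-fold compound dilutions plus L18-MDP 0.5 ng/mL final, 24 h at 37 °C. Supernatant SEAP read with QUANTI-Blue after 3 h at 620 nm; IC50 by 4-parameter fit vs DMSO±L18-MDP controls.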

T1 sequence (O43353 1-299 limits assumed): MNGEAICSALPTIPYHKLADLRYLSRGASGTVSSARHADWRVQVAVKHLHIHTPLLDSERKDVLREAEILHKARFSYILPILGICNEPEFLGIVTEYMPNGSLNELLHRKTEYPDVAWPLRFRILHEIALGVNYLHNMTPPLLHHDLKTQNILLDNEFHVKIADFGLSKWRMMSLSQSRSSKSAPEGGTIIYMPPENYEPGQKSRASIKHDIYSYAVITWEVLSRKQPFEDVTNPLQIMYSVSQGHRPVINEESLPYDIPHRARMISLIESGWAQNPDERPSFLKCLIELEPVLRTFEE

IC50 [1] [nM] | IC50 [2] [nM] | IC50 [3] [nM] | Compound
< 2.5 | 34.4 | 3.1 | Cc1cc(CC(=O)Nc2cnn(C(C)(C)C)c2)c(F)cc1Oc1ccnc2ccc(C(=O)NC34CC(C3)C4)cc12 [Compound 513, N-(bicyclo[1.1.1]pentan-1-yl)-4-(4-(2-((1-(tert-butyl)-1H-pyrazol-4-yl)amino)-2-oxoethyl)-5-fluoro-2-methylphenoxy)quinoline-6-carboxamide]
< 2.5 | 62.9 | 2.2 | Cc1cc(CC(=O)Nc2cnn(C34CC(C3)C4)c2)c(F)cc1Oc1ccnc2ccc(C(N)=O)cc12 [Compound 501, 4-(4-(2-((1-(bicyclo[1.1.1]pentan-1-yl)-1H-pyrazol-4-yl)amino)-2-oxoethyl)-5-fluoro-2-methylphenoxy)quinoline-6-carboxamide]
< 2.5 | 52.1 | 5.9 | Cc1cc(CC(=O)Nc2cnn(C(C)(C)C)c2)c(F)cc1Oc1ccnc2ccc(-c3nccnc3C)cc12 [Compound 476, N-(1-(tert-butyl)-1H-pyrazol-4-yl)-2-(2-fluoro-5-methyl-4-((6-(3-methylpyrazin-2-yl)quinolin-4-yl)oxy)phenyl)acetamide]
< 2.5 | 13.7 | 0.4 | CNC(=O)c1ccc2nccc(Oc3cc(F)c(CC(=O)Nc4cnn(C(C)(C)C)c4)cc3Cl)c2c1 [Compound 498, 4-(4-(2-((1-(tert-butyl)-1H-pyrazol-4-yl)amino)-2-oxoethyl)-2-chloro-5-fluorophenoxy)-N-methylquinoline-6-carboxamide]
< 2.5 | 26.9 | 1.5 | Cc1c(CC(=O)Nc2cnn(C(C)(C)C)c2)ccc(Oc2ccnc3ccc(S(C)(=O)=O)cc23)c1C [Compound 518, N-(1-(tert-butyl)-1H-pyrazol-4-yl)-2-(2,3-dimethyl-4-((6-(methylsulfonyl)quinolin-4-yl)oxy)phenyl)acetamide]
< 2.5 | 42.1 | 0.9 | Cc1c(Oc2ccnc3ccc(C(N)=O)cc23)cc(F)c(CC(=O)Nc2cnn(C34CC(C3)C4)c2)c1F [Compound 556, 4-(4-(2-((1-(bicyclo[1.1.1]pentan-1-yl)-1H-pyrazol-4-yl)amino)-2-oxoethyl)-3,5-difluoro-2-methylphenoxy)quinoline-6-carboxamide]
< 2.5 | 63.1 | 0.2 | Cc1c(Oc2ccnc3ccc(C(N)=O)cc23)cc(F)c(CC(=O)Nc2cnn(C(C)(C)C)c2)c1F [Compound 503, 4-(4-(2-((1-(tert-butyl)-1H-pyrazol-4-yl)amino)-2-oxoethyl)-3,5-difluoro-2-methylphenoxy)quinoline-6-carboxamide]
